From patent US10308644B2, “Heterocyclic compounds as immunomodulators” (Incyte Corporation, priority 2016, dated 2019) come the findings set out here.

Chain of PD-1/PD-L1 (Q9NZQ7 19-238): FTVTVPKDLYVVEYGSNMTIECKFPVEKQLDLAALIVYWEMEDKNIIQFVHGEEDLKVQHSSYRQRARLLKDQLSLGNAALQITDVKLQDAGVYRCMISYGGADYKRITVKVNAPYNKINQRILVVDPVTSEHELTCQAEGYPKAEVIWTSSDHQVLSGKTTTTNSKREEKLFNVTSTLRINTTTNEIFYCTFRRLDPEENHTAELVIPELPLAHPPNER

The assay addresses PD-1/PD-L1 (Homo sapiens (Human), UniProt Q9NZQ7). The assay is described as follows: PD-1/PD-L1 Homogeneous Time-Resolved Fluorescence (HTRF) Binding Assay. The note with it: recombinant human PD-1 (3 nM) and PD-L1 (10 nM), 25° C., PBS pH 7.4. Summed up: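 Fc-tagged human PD-1 (25-167, 3 nM) and His-tagged PD-L1 (19-238, 10 nM) preincubated with inhibitor 40 min in PBS pH 7.4, 0.05% Tween-20, 0.1% BSA, 1% DMSO, 25 °C. Binding detected by HTRF (Eu anti-IgG/APC anti-His, 665/620 nm) after 60 min; IC50 from percent control activity.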
(Time-resolved FRET reads energy transfer from a long-lived donor to a nearby acceptor.)
`Cc1c(-c2nc3c(o2)CCNC3)cccc1-c1cccc(-c2nc3cc(CN4CC[C@@H](C(=O)O)C4)cc(C#N)c3o2)c1C` [Example 75, (R)-1-((7-cyano-2-(2,2′-dimethyl-3′-(4,5,6,7-tetrahydrooxazolo[4,5-c]pyridin-2-yl)-[1,1′-biphenyl]-3-yl)benzo[d]oxazol-5-yl)methyl)pyrrolidine-3-carboxylic acid]: the IC50 (usually the concentration needed to halve the response being measured) was at most 10 nM.
On to `Cc1c(Nc2nccc3cc(CN4CC[C@H](O)C4)cnc23)cccc1-c1cccc(-c2nc3cc(CN4CC[C@H](C(=O)O)C4)cc(C#N)c3o2)c1C` [Example 25, (S)-1-((7-cyano-2-(3′-(3-(((S)-3-hydroxypyrrolidin-1-yl)methyl)-1,7-naphthyridin-8-ylamino)-2,2′-dimethylbiphenyl-3-yl)benzo[d]oxazol-5-yl)methyl)pyrrolidine-3-carboxylic acid], for which the half-maximal inhibitory concentration (IC50) was at most 10 nM.
Turning to `Cc1c(-c2nc3cc(CN4CCCC[C@H]4C(=O)O)cc(Cl)c3o2)cccc1-c1cccc(NC(=O)c2ccc(CN3CC[C@H](O)C3)cn2)c1Cl` [Example 2, (S)-1-((7-chloro-2-(2′-chloro-3′-(5-(((S)-3-hydroxypyrrolidin-1-yl)methyl)picolinamido)-2-methyl-[1,1′-biphenyl]-3-yl)benzo[d]oxazol-5-yl)methyl)piperidine-2-carboxylic acid], the IC50 is at most 10 nM.
Take `Cc1c(Nc2nccc3cc(CN4CC[C@H](O)C4)cnc23)cccc1-c1cccc(-c2nc3cc(CN4CCCC[C@H]4C(=O)O)cc(C#N)c3o2)c1C` [Example 27, (S)-1-((7-cyano-2-(3′-(3-(((S)-3-hydroxypyrrolidin-1-yl)methyl)-1,7-naphthyridin-8-ylamino)-2,2′-dimethylbiphenyl-3-yl)benzo[d]oxazol-5-yl)methyl)piperidine-2-carboxylic acid]: the half-inhibitory concentration (IC50) is at most 10 nM.
For `Cc1c(Nc2nccc3cc(CN4CC[C@@H](O)C4)cnc23)cccc1-c1cccc(-c2nc3cc(CNCCc4ccc(C(=O)O)cc4)cc(C#N)c3o2)c1C` [Example 171, (R)-4-(2-((7-cyano-2-(3′-(3-((3-hydroxypyrrolidin-1-yl)methyl)-1,7-naphthyridin-8-ylamino)-2,2′-dimethylbiphenyl-3-yl)benzo[d]oxazol-5-yl)methylamino)ethyl)benzoic acid], the IC50 was at most 10 nM.
As for `Cc1c(Nc2nccc3cc(CN4CCC4)cnc23)cccc1-c1cccc(-c2nc3cc(CN4CC[C@@H](C(=O)O)C4)cc(C#N)c3o2)c1C` [Example 135, (R)-1-((2-(3′-(3-(azetidin-1-ylmethyl)-1,7-naphthyridin-8-ylamino)-2,2′-dimethylbiphenyl-3-yl)-7-cyanobenzo[d]oxazol-5-yl)methyl)pyrrolidine-3-carboxylic acid], the half-maximal inhibitory concentration (IC50) is at most 10 nM.
In the case of `Cc1c(Nc2ncnc3cc(CN4CC[C@@H](O)C4)cnc23)cccc1-c1cccc(-c2nc3cc(CN4CC[C@@](C)(C(=O)O)C4)cc(C#N)c3o2)c1C` [Example 205, (R)-1-((7-cyano-2-(3′-(7-(((R)-3-hydroxypyrrolidin-1-yl)methyl)pyrido [3,2-d]pyrimidin-4-ylamino)-2,2-dimethylbiphenyl-3-yl)benzo[d]oxazol-5-yl)methyl)-3-methylpyrrolidine-3-carboxylic acid] it was at most 10 nM.
For the molecule `Cc1c(-c2nc3cc(CN4CC[C@@H](C(=O)O)C4)cc(Cl)c3o2)cccc1-c1cccc(Nc2nccc3cc(CN4CC[C@H](O)C4)cnc23)c1Cl` [Example 29, (R)-1-((7-chloro-2-(2′-chloro-3′-(3-(((S)-3-hydroxypyrrolidin-1-yl)methyl)-1,7-naphthyridin-8-ylamino)-2-methylbiphenyl-3-yl)benzo[d]oxazol-5-yl)methyl)pyrrolidine-3-carboxylic acid], the IC50 was at most 10 nM.
On to `Cc1c(-c2nc3cc(CN4CC[C@@H](C(=O)O)C4)cc(C#N)c3o2)cccc1-c1cccc(-c2nc3c(s2)CN(C)CC3)c1C` [Example 73], for which the IC50 is at most 10 nM.
On to `Cc1c(-c2nc3cc(CN4CCCC[C@H]4C(=O)O)c(OCC#N)cc3o2)cccc1-c1cccc(-c2nc3cc(CN4CCCC[C@H]4C(=O)O)c(OCC#N)cc3o2)c1C` [Example 7, (2S,2′S)-1,1′-(((2,2′-dimethyl-[1,1′-biphenyl]-3,3′-diyl)bis(6-(cyanomethoxy)benzo[d]oxazole-2,5-diyl))bis(methylene))bis(piperidine-2-carboxylic acid)], for which the IC50 is at most 10 nM.
Take `Cc1nc(CN2CC[C@H](O)C2)cnc1OCc1cccc(-c2cccc(-c3nc4cc(CN5CCC(C(=O)O)C5)cc(Cl)c4o3)c2C)c1Cl` (stereo partly drawn) [Example 153, 1-((7-chloro-2-(2′-chloro-3′-((5-(((S)-3-hydroxypyrrolidin-1-yl)methyl)-3-methylpyrazin-2-yloxy)methyl)-2-methylbiphenyl-3-yl)benzo[d]oxazol-5-yl)methyl)pyrrolidine-3-carboxylic acid]: the concentration for half-maximal inhibition (IC50) is at most 10 nM.
On to `CCN(C1CCN(c2cccc(-c3cccc(-c4nc5cc(CN6CC[C@@H](C(=O)O)C6)cc(C#N)c5o4)c3C)c2Cl)CC1)[C@H]1C[C@@H](O)C1` [Example 49, (R)-1-((2-(2′-chloro-3′-(4-(ethyl((1s,3s)-3-hydroxycyclobutyl)amino)piperidin-1-yl)-2-methylbiphenyl-3-yl)-7-cyanobenzo[d]oxazol-5-yl)methyl)pyrrolidine-3-carboxylic acid], for which the half-maximal inhibitory concentration (IC50) is at most 10 nM.
For `Cc1c(-c2nc3cc(CN4CC[C@@H](O)C4)cc(C#N)c3o2)cccc1-c1cccc(-c2nc3c(s2)CN(C(C)C)CC3)c1C` [Example 121, (R)-5-((3-hydroxypyrrolidin-1-yl)methyl)-2-(3′-(5-isopropyl-4,5,6,7-tetrahydrothiazolo[5,4-c]pyridin-2-yl)-2,2′-dimethyl-[1,1′-biphenyl]-3-yl)benzo[d]oxazole-7-carbonitrile], the IC50 is at most 10 nM.
`Cc1c(-c2nc3cc(CN4CC[C@@H](C(=O)NCCO)C4)cc(C#N)c3o2)cccc1-c1cccc(-n2cc3c(n2)CN(C(C)C)CC3)c1Cl` [Example 104, (R)-1-((2-(2′-chloro-3′-(6-isopropyl-4,5,6,7-tetrahydro-2H-pyrazolo[3,4-c]pyridin-2-yl)-2-methylbiphenyl-3-yl)-7-cyanobenzo[d]oxazol-5-yl)methyl)-N-(2-hydroxyethyl)pyrrolidine-3-carboxamide]: the IC50 was at most 10 nM.
In the case of `Cc1c(Nc2nccc3cc(CN4CC[C@@H](O)C4)cnc23)cccc1-c1cccc(-c2nc3cc(CN4CC[C@@](C)(C(=O)O)C4)cc(C#N)c3o2)c1C` [Example 100, (R)-1-((7-cyano-2-(3′-(3-(((R)-3-hydroxypyrrolidin-1-yl)methyl)-1,7-naphthyridin-8-ylamino)-2,2′-dimethylbiphenyl-3-yl)benzo[d]oxazol-5-yl)methyl)-3-methylpyrrolidine-3-carboxylic acid], the half-inhibitory concentration (IC50) was at most 10 nM.
Take `Cc1c(-c2nc3c(o2)CN(C(=O)CN2CCC(O)CC2)C3)cccc1-c1cccc(-c2nc3cc(CN4CC[C@@H](C(=O)O)C4)cc(C#N)c3o2)c1C` [Example 250, (R)-1-((7-cyano-2-(3′-(5-(2-(4-hydroxypiperidin-1-yl)acetyl)-5,6-dihydro-4H-pyrrolo[3,4-d]oxazol-2-yl)-2,2′-dimethyl-[1,1′-biphenyl]-3-yl)benzo[d]oxazol-5-yl)methyl)pyrrolidine-3-carboxylic acid]: the IC50 is at most 10 nM.
`Cc1c(-c2nc3cc(CN4CC[C@@H](O)C4)cc(Cl)c3o2)cccc1-c1cccc(NC(=O)c2cc(CN3CC[C@@H](C(=O)O)C3)cn(C)c2=O)c1Cl` [Example 151, (R)-1-((5-(2-chloro-3′-(7-chloro-5-(((R)-3-hydroxypyrrolidin-1-yl)methyl)benzo[d]oxazol-2-yl)-2′-methylbiphenyl-3-ylcarbamoyl)-1-methyl-6-oxo-1,6-dihydropyridin-3-yl)methyl)pyrrolidine-3-carboxylic acid]: the IC50 is at most 10 nM.
In the case of `Cc1c(Nc2nccc3cc(CNCC4(O)CC4)cnc23)cccc1-c1cccc(-c2nc3cc(CN4CC[C@@](C)(C(=O)O)C4)cc(C#N)c3o2)c1C` [Example 199, (R)-1-((7-cyano-2-(3′-(3-(((1-hydroxycyclopropyl)methylamino)methyl)-1,7-naphthyridin-8-ylamino)-2,2′-dimethylbiphenyl-3-yl)benzo[d]oxazol-5-yl)methyl)-3-methylpyrrolidine-3-carboxylic acid] it was at most 10 nM; in that of `CCN1CCc2c(nc(C(=O)Nc3cccc(-c4cccc(-c5nc6cc(CN7CC[C@H](C(=O)O)C7)cc(C#N)c6o5)c4C)c3Cl)n2C)C1` [Example 142, (S)-1-((2-(2′-chloro-3′-(5-ethyl-1-methyl-4,5,6,7-tetrahydro-1H-imidazo[4,5-c]pyridine-2-carboxamido)-2-methyl-[1,1′-biphenyl]-3-yl)-7-cyanobenzo[d]oxazol-5-yl)methyl)pyrrolidine-3-carboxylic acid], at most 10 nM; in that of `Cc1c(Nc2nccc3cc(CN4CC(O)C4)cnc23)cccc1-c1cccc(-c2nc3cc(CN4CC[C@@H](C(=O)O)C4)cc(C#N)c3o2)c1C` [Example 136, (R)-1-((7-cyano-2-(3′-(3-((3-hydroxyazetidin-1-yl)methyl)-1,7-naphthyridin-8-ylamino)-2,2′-dimethylbiphenyl-3-yl)benzo[d]oxazol-5-yl)methyl)pyrrolidine-3-carboxylic acid], at most 10 nM.
Regarding `Cc1c(-c2nc3cc(CN4CC[C@H](C(=O)O)C4)cc(C#N)c3o2)cccc1-c1cccc(Nc2nccc3cc(CN4CC[C@@H](O)C4)cnc23)c1Cl` [Example 83, (S)-1-((2-(2′-chloro-3′-(3-(((R)-3-hydroxypyrrolidin-1-yl)methyl)-1,7-naphthyridin-8-ylamino)-2-methylbiphenyl-3-yl)-7-cyanobenzo[d]oxazol-5-yl)methyl)pyrrolidine-3-carboxylic acid], the half-inhibitory concentration (IC50) is at most 10 nM.
